In patent US20250163032A1, “NOVEL MOLECULES AS INHIBITORS OF DNA DAMAGE REPAIR PATHWAY” (VRise Therapeutics, Inc., priority 2023, published 2025):
pIC50: −log10 of the molar value.

Key:
[1] = Metabolic stability, human liver microsomes; assay type: in vitro ADME; settings: pH 7.4, 1 μM test item, 1 mM NADPH, 60 minutes
Method: (§1) Test-8: Metabolic Stability
(§2) Metabolic stability studies were conducted using mouse, rat, and human liver microsomes. The protocol for the studies with mouse and human liver microsomes (Gibco-Thermo) is provided below.
(§3) In brief, 0.25 mg protein was preincubated in phosphate buffer (pH˜7.4) for 5 min at 37° C. and then added with 1 μM test item followed by addition of 1 mM NADPH (cof actor) and incubated further over a period 60 minutes in duplicate. The reaction mixture was terminated with acetonitrile containing an internal standard and centrifuged further to analyse the test item remaining in the supernatant by LC-MS/MS at different intervals. The percent parent compound remaining was calculated in comparison with similar samples terminated at 0 minutes.

MD-MBA-436 = test: Cell viability assay (CTG assay); assay type: cell-based, human; settings: Homo sapiens, 7th day
Method: Test 5: Cell Viability Assay (CTG Assay):
Growth inhibition assays was carried out using […] supplemented media. Cells were seeded at a desired concentration of 1000-6,000 cells/well in a well plate with desired number of wells. Test compounds at a desired concentration range were added after 24 hours. Growth was assessed using the Cell Titer-Glo (CTG, Cell Signaling) for measuring reduction at 7th day after the addition of test compound chemiluminescence values were read by a plate reader. Data was be analysed and percent inhibition and/or IC50 for each test compound is calculated accordingly.

[2] = Metabolic stability, mouse liver microsomes; assay type: in vitro ADME; settings: pH 7.4, 1 μM test item, 1 mM NADPH, 60 minutes
Method: as §1, §2, §3

NCI-H1792 = test: Cell viability assay (MTT assay), NCI-H1792; assay type: cell-based; settings: Homo sapiens, tested at 10 uM, 168 hours (Test-3)
Method: Test-3: Cell Viability Assay (MTT Assay):
Cell viability assay was carried out using 10% FBS supplemented media. Cells were seeded at desired density in 96 well plate and incubated in a humidified CO2 incubator. After 24 hours of plating, test compounds at desired concentration range were added to the plates and incubated in the CO2 incubator for 168 hours. Post 168 hrs treatment, 12.5 μL of MTT was added to all wells including DMSO control. MTT treated plates were incubated further for 3 hours and MTT crystals were dissolved using 125 μL of DMSO. Absorbance was read on a BIO-RAD iMark Microplate plate reader at a wavelength of 570 nm. Data was analysed and percent inhibition (IC50) due to the test compound compared to the control was calculated using GraphPad Prism.

USP1/UAF1 = USP1/UAF1 (Homo sapiens, UniProt O94782); test: USP1/UAF 1 assay (ubiquitin-rhodamine110 fluorometric deubiquitinase assay); assay type: biochemical; settings: for pIC50: 1 nM USP1/UAF1, 150 nM Ub-Rho, read-out: Biochemical assay IC50; for inhibition at 1 µM: read-out: Biochemical assay % inhibition @1 μM; for inhibition at 10 µM: read-out: Biochemical assay % inhibition @10 μM
Method: Test-1: USP1/UAF 1 Assay:
Deubiquitinase activity of USP1/UAF1 was monitored in a fluorometric assay using ubiquitin-rhodamine110 as substrate. Briefly, enzymatic reactions were conducted in an assay buffer composed of 50 mM HEPES, pH 7.8, 0.5 mM EDTA, 100 mM NaCl, 1 mM TCEP, 0.1 mg/mL BSA, and 0.01% Tween-20 that contained 1 nM USP1/UAF1. Compounds were tested at desired concentrations. The plates were incubated for 15 min to attain equilibrium, and then the enzymatic reaction was initiated by dispensing 150 nM Ub-Rho solution. Fluorescence measurement was performed in a high throughput CCD imager, where kinetic measurements of rhodamine fluorescence were acquired using a 480 nm excitation/540 nm emission filter set. The change in fluorescence intensity over a 5-minute reaction period (typically associated with less than 10% substrate conversion) was normalized against no-inhibitor and no-enzyme controls and the resulting percent inhibition data were fitted to a sigmoidal dose response using a four-parameter Hill equation. Data was be analysed and percent inhibition and/or IC50 for each test compound is calculated accordingly.

USP1/UAF1, sequence (O94782 whole entry): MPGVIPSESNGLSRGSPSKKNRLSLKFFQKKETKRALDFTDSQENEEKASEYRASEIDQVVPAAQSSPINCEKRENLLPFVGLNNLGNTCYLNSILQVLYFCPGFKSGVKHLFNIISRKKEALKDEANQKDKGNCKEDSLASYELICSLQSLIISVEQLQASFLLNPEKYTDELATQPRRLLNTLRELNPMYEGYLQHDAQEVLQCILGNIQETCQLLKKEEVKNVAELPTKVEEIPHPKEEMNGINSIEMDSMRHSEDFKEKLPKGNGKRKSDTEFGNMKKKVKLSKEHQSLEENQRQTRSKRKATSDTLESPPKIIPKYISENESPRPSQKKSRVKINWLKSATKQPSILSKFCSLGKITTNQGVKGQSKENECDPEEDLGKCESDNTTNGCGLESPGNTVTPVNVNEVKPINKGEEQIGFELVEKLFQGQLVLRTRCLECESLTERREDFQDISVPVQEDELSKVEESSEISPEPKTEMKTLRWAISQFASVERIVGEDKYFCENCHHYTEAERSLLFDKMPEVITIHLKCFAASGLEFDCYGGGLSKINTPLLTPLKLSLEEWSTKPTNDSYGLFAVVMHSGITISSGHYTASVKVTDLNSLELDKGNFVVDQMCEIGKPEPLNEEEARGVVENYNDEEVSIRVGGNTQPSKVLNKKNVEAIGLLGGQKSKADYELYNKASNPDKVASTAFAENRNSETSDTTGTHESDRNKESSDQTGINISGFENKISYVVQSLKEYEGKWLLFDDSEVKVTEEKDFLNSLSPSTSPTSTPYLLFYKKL
USP1/UAF1, sequence (Q8TAF3 whole entry partner): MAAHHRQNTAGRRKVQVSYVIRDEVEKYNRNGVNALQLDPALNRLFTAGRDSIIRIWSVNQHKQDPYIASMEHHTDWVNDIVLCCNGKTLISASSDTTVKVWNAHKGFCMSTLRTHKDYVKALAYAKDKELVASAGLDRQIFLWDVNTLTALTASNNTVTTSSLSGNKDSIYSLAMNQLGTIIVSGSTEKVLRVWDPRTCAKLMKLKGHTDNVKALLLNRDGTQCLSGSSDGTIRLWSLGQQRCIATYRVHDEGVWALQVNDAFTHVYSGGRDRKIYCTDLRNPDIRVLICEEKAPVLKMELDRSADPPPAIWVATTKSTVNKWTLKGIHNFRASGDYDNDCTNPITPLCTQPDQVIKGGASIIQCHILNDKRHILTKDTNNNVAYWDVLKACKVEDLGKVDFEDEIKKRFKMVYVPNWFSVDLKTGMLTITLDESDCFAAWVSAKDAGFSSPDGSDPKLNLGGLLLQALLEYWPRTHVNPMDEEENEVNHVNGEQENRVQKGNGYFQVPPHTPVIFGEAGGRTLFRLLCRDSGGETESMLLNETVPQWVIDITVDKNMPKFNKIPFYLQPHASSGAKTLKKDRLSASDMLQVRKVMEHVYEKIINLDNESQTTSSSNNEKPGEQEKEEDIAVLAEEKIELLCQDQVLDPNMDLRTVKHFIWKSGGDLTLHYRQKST

SMILES	half-life at 1 μM [1] [min]	inhibition at 10 µM (MD-MBA-436) [%]	half-life at 1 μM [2] [min]	inhibition at 10 µM (NCI-H1792) [%]	pIC50 (USP1/UAF1)	pIC50 (MD-MBA-436)	inhibition at 1 µM (USP1/UAF1) [%]	inhibition at 10 µM (USP1/UAF1) [%]
COc1ncnc(C2CC2)c1-c1nc2c(c(OCc3ccc(-c4nc(C(F)(F)F)cn4C)cc3)n1)CCC2 [Example 24, 2-(4-cyclopropyl-6-methoxypyrimidin-5-yl)-4-((4-(1-methyl-4-(trifluoromethyl)-1H-imidazol-2-yl)benzyl)oxy)-6,7-dihydro-5H-cyclopenta[d]pyrimidine]	227	75 to 100	22.6					
COc1ccncc1-c1nc(NCc2ccc(-c3nc(C(F)(F)F)cn3C)cc2)c2ncn(C3CCCCO3)c2n1 (centres unmarked) [Example 33, 2-(4-methoxypyridin-3-yl)-N-(4-(1-methyl-4-(trifluoromethyl)-1H-imidazol-2-yl)benzyl)-9-(tetrahydro-2H-pyran-2-yl)-9H-purin-6-amine]				50 to 75				
COc1ncnc(C2CC2)c1-c1nc2c(c(NCc3ccc(-c4nc(C(F)(F)F)cn4C)cc3)n1)CCC2 [Example 1, 2-(4-cyclopropyl-6-methoxypyrimidin-5-yl)-N-(4-(1-methyl-4-(trifluoromethyl)-1H-imidazol-2-yl)benzyl)-6,7-dihydro-5H-cyclopenta[d]pyrimidin-4-amine]	108		89.6	25 to 50	7.00 to 7.30	> 7.30		
COc1ncnc(C2CC2)c1-c1nc(NCc2ccc(-c3nc(C(F)(F)F)cn3C)cc2)c2cccn2n1 [Example 6, 2-(4-cyclopropyl-6-methoxypyrimidin-5-yl)-N-(4-(1-methyl-4-(trifluoromethyl)-1H-imidazol-2-yl)benzyl)pyrrolo[2,1-f][1,2,4]triazin-4-amine]	≥ 300		≥ 30	50 to 75	> 7.30	> 7.30		
COc1ncnc(C2CC2)c1-c1nc(NCc2ccc(-c3cccnc3)cc2)c2[nH]cnc2n1 [Example 76, 2-(4-cyclopropyl-6-methoxypyrimidin-5-yl)-N-(4-(pyridin-3-yl)benzyl)-7H-purin-6-amine]			10.1	25 to 50				
COc1ncnc(C2CC2)c1-c1nc(NCc2ccc(-c3nc(C(F)(F)F)cn3C)cc2)c2[nH]cnc2n1 [Example 16, 2-(4-cyclopropyl-6-methoxypyrimidin-5-yl)-N-(4-(1-methyl-4-(trifluoromethyl)-1H-imidazol-2-yl)benzyl)-7H-purin-6-amine]	≥ 700	50 to 75	≥ 230		7.00 to 7.30			
COc1ncnc(C2CC2)c1-c1nc(NCc2ccc(-c3ccc(F)cn3)cc2)c2[nH]cnc2n1 [Example 77, 2-(4-cyclopropyl-6-methoxypyrimidin-5-yl)-N-(4-(5-fluoropyridin-2-yl)benzyl)-7H-purin-6-amine]				50 to 75				
CC(C)c1ccccc1-c1nc2c(c(NCc3ccc(-c4nc(C(F)(F)F)cn4C)cc3)n1)CCC2 [Example 3, 2-(2-isopropylphenyl)-N-(4-(1-methyl-4-(trifluoromethyl)-1H-imidazol-2-yl)benzyl)-6,7-dihydro-5H-cyclopenta[d]pyrimidin-4-amine]	14		14.4		> 7.30	> 7.30		
CC(C)c1ccccc1-c1nc2c(c(N(Cc3ccc(-c4nc(C(F)(F)F)cn4C(C)C)cc3)C(=O)N(C)C)n1)CCC2 [Example 14, 1-(4-(1-isopropyl-4-(trifluoromethyl)-1H-imidazol-2-yl)benzyl)-1-(2-(2-isopropylphenyl)-6,7-dihydro-5H-cyclopenta[d]pyrimidin-4-yl)-3,3-dimethylurea]	3.21						25 to 50	
COc1ncccc1-c1nc(NCc2ccc(-c3nc(C(F)(F)F)cn3C)cc2)c2ncn(C3CCCCO3)c2n1 (centres unmarked) [Example 31, 2-(2-methoxypyridin-3-yl)-N-(4-(1-methyl-4-(trifluoromethyl)-1H-imidazol-2-yl)benzyl)-9-(tetrahydro-2H-pyran-2-yl)-9H-purin-6-amine]				25 to 50				
Cc1cnc(-c2ccccc2C(C)C)nc1NCc1ccc(-n2ccnn2)cc1 [ML323, reference compound]	30.3		7.58					
COc1ncnc(C2CC2)c1-c1nc(NCc2ccc(-c3nc(C(F)(F)F)cn3C)cc2)c2c(c1C#N)CCC2 [Example 2, 3-(4-cyclopropyl-6-methoxypyrimidin-5-yl)-1-((4-(1-methyl-4-(trifluoromethyl)-1H-imidazol-2-yl)benzyl)amino)-6,7-dihydro-5H-cyclopenta[c]pyridine-4-carbonitrile]	20.4	50 to 75			6.00 to 7.00			
COc1ncnc(C2CC2)c1-c1nc2c(c(NCc3ccc(-c4nc(C(F)(F)F)cn4C)cc3)c1C#N)CCC2 [Example 21, 2-(4-cyclopropyl-6-methoxypyrimidin-5-yl)-4-((4-(1-methyl-4-(trifluoromethyl)-1H-imidazol-2-yl)benzyl)amino)-6,7-dihydro-5H-cyclopenta[b]pyridine-3-carbonitriles]	52.7	50 to 75			6.00 to 7.00			
COc1ncnc(C2CC2)c1-c1nc2c(c(N(Cc3ccc(-c4nc(C(F)(F)F)cn4C)cc3)C(N)=O)n1)CCC2 [Example 12, 1-(2-(4-cyclopropyl-6-methoxypyrimidin-5-yl)-6,7-dihydro-5H-cyclopenta[d]pyrimidin-4-yl)-1-(4-(1-methyl-4-(trifluoromethyl)-1H-imidazol-2-yl)benzyl)urea]	9	50 to 75	40.2				> 75	
COc1ncnc(C2CC2)c1-c1nc2c(c(NCc3ccc(-c4nc(C(F)(F)F)cn4C(C)C)cc3)n1)CCC2 [Example 10, 2-(4-cyclopropyl-6-methoxypyrimidin-5-yl)-N-(4-(1-isopropyl-4-(trifluoromethyl)-1H-imidazol-2-yl)benzyl)-6,7-dihydro-5H-cyclopenta[d]pyrimidin-4-amine]	134		47		> 7.30	> 7.30		
CC(C)c1ccccc1-c1nc(NCc2ccc(-c3nc(C(F)(F)F)cn3C)cc2)c2c(c1C#N)CCC2 [Example 4, 3-(2-isopropylphenyl)-1-((4-(1-methyl-4-(trifluoromethyl)-1H-imidazol-2-yl)benzyl)amino)-6,7-dihydro-5H-cyclopenta[c]pyridine-4-carbonitrile]	7.13		7.71		7.00 to 7.30	≤ 6.00		
COc1ncccc1-c1nc(NCc2ccc(-c3nc(C(F)(F)F)cn3C)cc2)c2[nH]cnc2n1 [Example 32, 2-(2-methoxypyridin-3-yl)-N-(4-(1-methyl-4-(trifluoromethyl)-1H-imidazol-2-yl)benzyl)-7H-purin-6-amine]				50 to 75				> 75
COc1ncnc(C2CC2)c1-c1nc(OCc2ccc(-c3nc(C(F)(F)F)cn3C)cc2)c2[nH]cnc2n1 [Example 26, 2-(4-cyclopropyl-6-methoxypyrimidin-5-yl)-6-((4-(1-methyl-4-(trifluoromethyl)-1H-imidazol-2-yl)benzyl)oxy)-7H-purine]	683		284					> 75
